# Experimental data from PMC5025780, “Copper(II) ions affect the gating dynamics of the 20S proteasome: a molecular and in cell study” (Scientific Reports, 2016).
# Tests used:
# Format in all cases: biochemical
# [1] = target: T1, human 20S proteasome (hCP), ChT-L activity; test: ChT-L peptidase activity of isolated hCP (Suc-LLVY-AMC fluorogenic substrate); settings: hCP 2 nM, 1 h preincubation with ions, Tris 25 mM pH 7.6, 37 °C, no SDS; read-out: IC50 ChT-L
# T1 construct: purchased Boston Biochem (Cambridge, MA, USA)
# Source text: (§1) Purified human 20S proteasome (hCP) and the fluorogenic substrates Suc-LLVY-AMC, Z-Leu-Leu-Glu-AMC, and Ac-Arg-Leu-Arg-AMC used to assay the ChT-L, T-L, and C-L activity, were from Boston Biochem (Cambridge, MA, USA). Bathocuproinedisulfonic acid disodium salt (BCS), dithiothreitol (DTT), N-Acetyl-L-Cysteine (NAC), Sodium dodecylsulphate (SDS) as well as CuCl2 and Zn(NO3)2 were from Sigma-Aldrich (St. Louis, MO). Proteasome inhibitors Epoxomicin were obtained from Enzo Life Science. Wild type 20S proteasome isolated from Saccharomices Cerevisiae (yCP) and a mutant (α3ΔN) where nine residues of the N-terminal tail of the α3 subunit are deleted to provide a permanently open-gate conformations were isolated as described elsewhere.
# (§2) Peptidase activities of hCP (2 nM) were assayed on in 50 μL Tris 25 mM pH 7.6, at 37 °C with 100 μM of the fluorogenic substrate. hCP was incubated with Cu(II)/Zn(II) ions for 1 h prior activity assays. The fluorescence signal activated by peptide cleavage was recorded at 440 nm (excitation at 360 nm) for 45 min, by a Varioskan (Thermo^©) plate reader in 384 multiwell plates. Three replicates were performed for each data point. Data were reported as normalized percentages of residual activity. The potency (IC50) was calculated from the value of the dose response plot corresponding at a fractional activity of 50%. The IC50 values were determined using a non linear fit of experimental data in according to equation: […]
# (§3) The midpoint of this function occurs at a fractional activity value of 50%, corresponding to half inhibition of the target enzyme. The IC50 values and their standard errors were deduced from the fitting. To evaluate if copper is a reversible PI, we measured the ChT-L activity of hCP incubated with Cu(II) (2.20 μM) before and after addition of an equimolar amount of EDTA.
# [2] = target: T2, human 20S proteasome (hCP), T-L activity; test: T-L peptidase activity of isolated hCP (fluorogenic substrate); settings: hCP 2 nM, 1 h preincubation with ions, Tris 25 mM pH 7.6, 37 °C, no SDS; read-out: IC50 T-L
# T2 construct: purchased Boston Biochem (Cambridge, MA, USA)
# Source text: as §1, §2, §3
# [3] = target: T3, human 20S proteasome (hCP), C-L activity; test: C-L peptidase activity of isolated hCP (fluorogenic substrate); settings: hCP 2 nM, 1 h preincubation with ions, Tris 25 mM pH 7.6, 37 °C, no SDS; read-out: IC50 C-L
# T3 construct: purchased Boston Biochem (Cambridge, MA, USA)
# Source text: as §1, §2, §3
# [4] = target: T4, human 20S proteasome (hCP); test: Peptidase activities of isolated hCP, all three (ChT-L, T-L, C-L); settings: T-L and C-L of hCP, no SDS, read-out: IC50 values, range over the three peptidase activities
# T4 construct: purchased Boston Biochem (Cambridge, MA, USA)
# Source text: as §1
# as §2, with “The potency (IC50) was calculated from the value of the dose response plot corresponding at a fractional activity of 50%.” left out
structure (smiles),measurement,setting,value
"O=[N+]([O-])[O-].O=[N+]([O-])[O-].[Zn+2] [Zn(II), Zn(NO3)2, reference compound]",IC50,[1],5.99 µM
same,IC50,[2],4.16 µM
same,IC50,[3],5.84 µM
same,IC50,[4],4.16 to 5.99 µM
